Reference: patent US20210254056A1, “IDENTIFICATION AND TARGETED MODULATION OF GENE SIGNALING NETWORKS” (CAMP4 THERAPEUTICS CORPORATION, priority 2017, published 2021)
Where a name gives a salt, the structure may show the parent alone. Read-outs that look alike come from different tables or passages of the source.

Tested on: hepatocytes
Experiment: RNA-seq of hepatocytes treated with Phase III failure compounds
Details: for significant modulation of expression of disease genes: q≤0.05, genes in the value or listed in the block; for B2M expression, RNA-seq result: gene B2M; for B9D2 expression, RNA-seq result: gene B9D2; for BAAT expression, RNA-seq result: gene BAAT; for BBOX1 expression, RNA-seq result: gene BBOX1; for BBS10 expression, RNA-seq result: gene BBS10; for BCHE expression, RNA-seq result: gene BCHE; for BCKDHB expression, RNA-seq result: gene BCKDHB; for BCKDK expression, RNA-seq result: gene BCKDK; for BCO1 expression, RNA-seq result: gene BCO1; for BCR expression, RNA-seq result: gene BCR; for BLNK expression, RNA-seq result: gene BLNK; for BLOC1S3 expression, RNA-seq result: gene BLOC1S3; for BMPR1A expression, RNA-seq result: gene BMPR1A; for BRAF expression, RNA-seq result: gene BRAF; for BSCL2 expression, RNA-seq result: gene BSCL2; for BTD expression, RNA-seq result: gene BTD; for C4A expression, RNA-seq result: gene C4A; for C9 expression, RNA-seq result: gene C9; for C10orf10 expression, RNA-seq result: gene C10orf10; for C10orf11 expression, RNA-seq result: gene C10orf11; for C15orf41 expression, RNA-seq result: gene C15orf41; for CA2 expression, RNA-seq result: gene CA2; for CA5A expression, RNA-seq result: gene CA5A; for CA12 expression, RNA-seq result: gene CA12; for CAV1 expression, RNA-seq result: gene CAV1; for CCND1 expression, RNA-seq result: gene CCND1; for CD46 expression, RNA-seq result: gene CD46; for CD81 expression, RNA-seq result: gene CD81; for CD320 expression, RNA-seq result: gene CD320; for CDAN1 expression, RNA-seq result: gene CDAN1; for CDH1 expression, RNA-seq result: gene CDH1; for CEP19 expression, RNA-seq result: gene CEP19; for CEP83 expression, RNA-seq result: gene CEP83; for CEP164 expression, RNA-seq result: gene CEP164; for CEP290 expression, RNA-seq result: gene CEP290; for CFB expression, RNA-seq result: gene CFB; for CFHR2 expression, RNA-seq result: gene CFHR2; for CHRM3 expression, RNA-seq result: gene CHRM3; for CIDEC expression, RNA-seq result: gene CIDEC; for CLDN1 expression, RNA-seq result: gene CLDN1; for COG1 expression, RNA-seq result: gene COG1; for significant modulation of expression of any of the genes analyzed: p≤0.05; for significant changes in gene expression: RNA-seq of Table 36, FPKM≥0.5, log 2(fold-change)≥1, q-value≤0.05
Description: RNA-seq was performed to determine the effects of the compounds on hepatocytes.
Significance was determined by the criteria of FPKM≥0.5, a log 2(fold-change)≥1, and a […].

[1] = RNA-seq, Phase III failure compounds, hepatocytes, significance: FPKM≥0.5, log 2(fold-change)≥1, q-value≥0.05 (so in the source)

Compound: CC(C)[C@H](O)C(=O)N[C@@H](C)C(=O)N[C@@H]1C(=O)N(C)CCc2ccccc21 [Semagacestat]
- Number (#) of genes having significantly changed expression [1]: 9
- significant modulation of expression of disease genes (RNA-seq, hepatocytes): significantly (q≤0.05) modulate expression of CYP3A4
- B2M expression, RNA-seq result (hepatocytes): −0.06
- B9D2 expression, RNA-seq result (hepatocytes): 0.10
- BAAT expression, RNA-seq result (hepatocytes): 0.02
- BBOX1 expression, RNA-seq result (hepatocytes): −0.39
- BBS10 expression, RNA-seq result (hepatocytes): −0.12
- BCHE expression, RNA-seq result (hepatocytes): −0.07
- BCKDHB expression, RNA-seq result (hepatocytes): 0.07
- BCKDK expression, RNA-seq result (hepatocytes): 0.00
- BCO1 expression, RNA-seq result (hepatocytes): −0.09
- BCR expression, RNA-seq result (hepatocytes): −0.04
- BLNK expression, RNA-seq result (hepatocytes): −0.03
- BLOC1S3 expression, RNA-seq result (hepatocytes): −0.02
- BMPR1A expression, RNA-seq result (hepatocytes): 0.01
- BRAF expression, RNA-seq result (hepatocytes): 0.30
- BSCL2 expression, RNA-seq result (hepatocytes): 0.05
- BTD expression, RNA-seq result (hepatocytes): −0.02
- C4A expression, RNA-seq result (hepatocytes): 0.16
- C9 expression, RNA-seq result (hepatocytes): −0.11
- C10orf10 expression, RNA-seq result (hepatocytes): 0.01
- C10orf11 expression, RNA-seq result (hepatocytes): −0.27
- C15orf41 expression, RNA-seq result (hepatocytes): −0.28
- CA2 expression, RNA-seq result (hepatocytes): 0.59
- CA5A expression, RNA-seq result (hepatocytes): −0.22
- CA12 expression, RNA-seq result (hepatocytes): 0.80
- CAV1 expression, RNA-seq result (hepatocytes): −0.21
- CCND1 expression, RNA-seq result (hepatocytes): −0.14
- CD46 expression, RNA-seq result (hepatocytes): −0.05
- CD81 expression, RNA-seq result (hepatocytes): −0.02
- CD320 expression, RNA-seq result (hepatocytes): −0.04
- CDAN1 expression, RNA-seq result (hepatocytes): −0.07
- CDH1 expression, RNA-seq result (hepatocytes): 0.01
- CEP19 expression, RNA-seq result (hepatocytes): −0.22
- CEP83 expression, RNA-seq result (hepatocytes): −0.04
- CEP164 expression, RNA-seq result (hepatocytes): −0.01
- CEP290 expression, RNA-seq result (hepatocytes): 0.06
- CFB expression, RNA-seq result (hepatocytes): −0.07
- CFHR2 expression, RNA-seq result (hepatocytes): 0.01
- CHRM3 expression, RNA-seq result (hepatocytes): 0.08
- CIDEC expression, RNA-seq result (hepatocytes): 0.28
- CLDN1 expression, RNA-seq result (hepatocytes): −0.05
- COG1 expression, RNA-seq result (hepatocytes): 0.17

Compound: Cn1cc(C2=C(c3cn(C4CCN(Cc5ccccn5)CC4)c4ccccc34)C(=O)NC2=O)c2ccccc21 [Enzstaurin]
- Number (#) of genes having significantly changed expression: 971

Compound: C1=C/COCc2cc(ccc2OCCN2CCCC2)Nc2nccc(n2)-c2cccc(c2)COC/1 [Pacritinib]
- Number (#) of genes having significantly changed expression [1]: 4114

Compound: CO[C@H]1C[C@@H]2CC[C@@H](C)[C@@](O)(O2)C(=O)C(=O)N2CCCC[C@H]2C(=O)O[C@H]([C@H](C)C[C@@H]2CC[C@@H](OC(=O)C(C)(CO)CO)[C@H](OC)C2)CC(=O)[C@H](C)/C=C(\C)[C@@H](O)[C@@H](OC)C(=O)[C@H](C)C[C@H](C)/C=C/C=C/C=C/1C [Temsirolimus]
- Number (#) of genes having significantly changed expression [1]: 34
- significant modulation of expression of any of the genes analyzed (RNA-seq, hepatocytes): not observed to significantly modulate expression
- effect on disease gene expression (RNA-seq, hepatocytes): no effect on any disease gene

Compound: COc1cccc2c1C(=O)c1c(O)c3c(c(O)c1C2=O)C[C@@](O)(/C(CO)=N/NC(=O)CCCCCN1C(=O)C=CC1=O)C[C@@H]3O[C@H]1C[C@H](N)[C@H](O)[C@H](C)O1 [INNO-206 (aldoxorubicin), aldoxorubicin]
- Number (#) of genes having significantly changed expression: 1944
- significant modulation of expression of disease genes (RNA-seq, hepatocytes): significantly (q≤0.05) modulate expression
- B2M expression, RNA-seq result (hepatocytes): 0.38
- B9D2 expression, RNA-seq result (hepatocytes): 0.04
- BAAT expression, RNA-seq result (hepatocytes): −1.32
- BBOX1 expression, RNA-seq result (hepatocytes): −1.19
- BBS10 expression, RNA-seq result (hepatocytes): −0.06
- BCHE expression, RNA-seq result (hepatocytes): −0.69
- BCKDHB expression, RNA-seq result (hepatocytes): 0
- BCKDK expression, RNA-seq result (hepatocytes): −0.91
- BCO1 expression, RNA-seq result (hepatocytes): −0.28
- BCR expression, RNA-seq result (hepatocytes): −0.83
- BLNK expression, RNA-seq result (hepatocytes): 1.32
- BLOC1S3 expression, RNA-seq result (hepatocytes): −0.26
- BMPR1A expression, RNA-seq result (hepatocytes): −0.33
- BRAF expression, RNA-seq result (hepatocytes): −0.34
- BSCL2 expression, RNA-seq result (hepatocytes): 0.84
- BTD expression, RNA-seq result (hepatocytes): −0.48
- C4A expression, RNA-seq result (hepatocytes): 0.4
- C9 expression, RNA-seq result (hepatocytes): 1.1
- C10orf10 expression, RNA-seq result (hepatocytes): 1.26
- C10orf11 expression, RNA-seq result (hepatocytes): −1.44
- C15orf41 expression, RNA-seq result (hepatocytes): −1.28
- CA2 expression, RNA-seq result (hepatocytes): 1.36
- CA5A expression, RNA-seq result (hepatocytes): −0.64
- CA12 expression, RNA-seq result (hepatocytes): 0.43
- CAV1 expression, RNA-seq result (hepatocytes): 0.02
- CCND1 expression, RNA-seq result (hepatocytes): 0.26
- CD46 expression, RNA-seq result (hepatocytes): 1.34
- CD81 expression, RNA-seq result (hepatocytes): 0.46
- CD320 expression, RNA-seq result (hepatocytes): −0.9
- CDAN1 expression, RNA-seq result (hepatocytes): −0.23
- CDH1 expression, RNA-seq result (hepatocytes): −0.12
- CEP19 expression, RNA-seq result (hepatocytes): 0.44
- CEP83 expression, RNA-seq result (hepatocytes): −1.24
- CEP164 expression, RNA-seq result (hepatocytes): 1.34
- CEP290 expression, RNA-seq result (hepatocytes): −1.26
- CFB expression, RNA-seq result (hepatocytes): 0.72
- CFHR2 expression, RNA-seq result (hepatocytes): 1.2
- CHRM3 expression, RNA-seq result (hepatocytes): −0.08
- CIDEC expression, RNA-seq result (hepatocytes): −0.39
- CLDN1 expression, RNA-seq result (hepatocytes): −0.93
- COG1 expression, RNA-seq result (hepatocytes): 0.38

Compound: Cc1ccc2c(c1)c1c(n2CCc2ccc(C)nc2)CCN(C)C1 [Latrepirdine (dihydrochloride) (64), Latrepirdine]
- significant changes in gene expression: not observed to cause any significant changes in gene expression

Compound: Cn1c(COP(=O)(NCCBr)NCCBr)cnc1[N+](=O)[O-] [TH-302 (Evofosfamide), Evofosfamide]
- Number (#) of genes having significantly changed expression: 28
- significant modulation of expression of disease genes (RNA-seq, hepatocytes): significantly (q≤0.05) modulate expression of the following genes: FAM111B, FGFR2, PKHD1, and RMRP
- B2M expression, RNA-seq result (hepatocytes): 0.16
- B9D2 expression, RNA-seq result (hepatocytes): −0.2
- BAAT expression, RNA-seq result (hepatocytes): 0.12
- BBOX1 expression, RNA-seq result (hepatocytes): 0.35
- BBS10 expression, RNA-seq result (hepatocytes): 0.24
- BCHE expression, RNA-seq result (hepatocytes): −0.07
- BCKDHB expression, RNA-seq result (hepatocytes): −0.17
- BCKDK expression, RNA-seq result (hepatocytes): 0.04
- BCO1 expression, RNA-seq result (hepatocytes): −0.28
- BCR expression, RNA-seq result (hepatocytes): −0.01
- BLNK expression, RNA-seq result (hepatocytes): −0.2
- BLOC1S3 expression, RNA-seq result (hepatocytes): 0.04
- BMPR1A expression, RNA-seq result (hepatocytes): −0.05
- BRAF expression, RNA-seq result (hepatocytes): −0.01
- BSCL2 expression, RNA-seq result (hepatocytes): −0.03
- BTD expression, RNA-seq result (hepatocytes): −0.16
- C4A expression, RNA-seq result (hepatocytes): −0.36
- C9 expression, RNA-seq result (hepatocytes): 0.16
- C10orf10 expression, RNA-seq result (hepatocytes): −0.2
- C10orf11 expression, RNA-seq result (hepatocytes): −0.71
- C15orf41 expression, RNA-seq result (hepatocytes): 0.08
- CA2 expression, RNA-seq result (hepatocytes): 0.11
- CA5A expression, RNA-seq result (hepatocytes): −0.1
- CA12 expression, RNA-seq result (hepatocytes): 0.32
- CAV1 expression, RNA-seq result (hepatocytes): 0.13
- CCND1 expression, RNA-seq result (hepatocytes): 0.16
- CD46 expression, RNA-seq result (hepatocytes): 0.08
- CD81 expression, RNA-seq result (hepatocytes): 0.09
- CD320 expression, RNA-seq result (hepatocytes): 0.17
- CDAN1 expression, RNA-seq result (hepatocytes): 0.11
- CDH1 expression, RNA-seq result (hepatocytes): −0.56
- CEP19 expression, RNA-seq result (hepatocytes): −0.02
- CEP83 expression, RNA-seq result (hepatocytes): −0.06
- CEP164 expression, RNA-seq result (hepatocytes): −0.03
- CEP290 expression, RNA-seq result (hepatocytes): 0.16
- CFB expression, RNA-seq result (hepatocytes): 0.01
- CFHR2 expression, RNA-seq result (hepatocytes): 0.13
- CHRM3 expression, RNA-seq result (hepatocytes): −0.58
- CIDEC expression, RNA-seq result (hepatocytes): −0.06
- CLDN1 expression, RNA-seq result (hepatocytes): −0.05
- COG1 expression, RNA-seq result (hepatocytes): 0.12

Compound: COC[C@@H](c1ccc(C(F)(F)F)cc1)N1CCN(C2(C)CCN(C(=O)c3c(C)ncnc3C)CC2)C[C@@H]1C [Vicriviroc (maleate), Vicriviroc]
- significant changes in gene expression: not observed to cause any significant changes in gene expression
- significant modulation of expression of any of the genes analyzed (RNA-seq, hepatocytes): not observed to significantly modulate expression
